The text below walks through data of patent US11000537B2, “Composition comprising novel ginsenoside” (AMOREPACIFIC CORPORATION, priority 2018, dated 2021).

Holding throughout (format): cell-based
Data set [1] relates to human umbilical vein endothelial cells (HUVECs). In words: survival rate of vascular endothelial cells (MTT). How it is done: In this experiment, it was confirmed whether the novel ginsenoside GS #10 of an embodiment of the present disclosure can increase the survival rate of vascular endothelial cells. Specifically, human umbilical vein endothelial cells (HUVECs) were purchased from the International Center for Biological Resources (ATCC) and cultured, and then the novel ginsenoside GS #10 was treated at a concentration of 1-10 μg/ml and MTT(3-(4,5-dimethylthiazol-2-yl)-2,5-diphenyltetrazolium bromide) analysis was performed to observe cell death.

A further data set relates to CD36. In words: CD36 adipocyte marker gene expression (qPCR). How it is done: (§1) The adipocyte cell 3T3-L1 purchased from the International Center for Biological Resources (ATCC) were placed in Dulbecco's Modified Eagle's Medium (Sigma) to which 10% fetal bovine serum (Hyclone) and 1% penicillin/streptomycin (Sigma) were added, and cultured in a 5% CO2 incubator. In order to differentiate preadipocytes into adipocytes, the cells were filled in a culture plate and cultured. After 48 hours, the cells were replaced with Dulbecco's modified eagle medium (DMEM) to which 10% of fetal bovine serum (Hyclone), 0.5 mM of 3-isobutyl-1-methylxanthine (Sigma), 1 μM of dexamethasone (Sigma), 5 μg/ml of insulin (Sigma), 1% of penicillin/streptomycin (Sigma) were added and further cultured for 48 hours. During 48 hours of culture, seven types of ginsenoside reagents (GS #01-GS #06, GS #10) extracted from Ginseng seeds were treated at 10 μM each to affect adipocyte differentiation. […]
(§2) After the differentiation of adipocytes in the same manner as above, the expressions of PPARγ (Peroxisome proliferator-activated receptor gamma), aP2 (Adipocyte protein 2) and CD36 were observed as adipocyte marker genes. […] Bio-Rad's CFX96 real-time quantitative PCR (qPCR) instrument was used to quantify the expression levels of each gene. […]
(In general: Quantitative PCR measures a nucleic acid by following its amplification.)

The test system of data set [2] is HMG-CoA (3-hydroxy-3-methyl-glutaryl-coenzyme A) reductase. The data set is described as follows: HMG-CoA reductase gene expression in HepG2 (qPCR). To be noted: 24 hours.
Another data set concerns adipocyte cell 3T3-L1. In words: fat accumulation in adipocytes (Oil-red O staining). The procedure: The adipocyte cell 3T3-L1 purchased from the International Center for Biological Resources (ATCC) were placed in Dulbecco's Modified Eagle's Medium (Sigma) to which 10% fetal bovine serum (Hyclone) and 1% penicillin/streptomycin (Sigma) were added, and cultured in a 5% CO2 incubator. In order to differentiate preadipocytes into adipocytes, the cells were filled in a culture plate and cultured. After 48 hours, the cells were replaced with Dulbecco's modified eagle medium (DMEM) to which 10% of fetal bovine serum (Hyclone), 0.5 mM of 3-isobutyl-1-methylxanthine (Sigma), 1 μM of dexamethasone (Sigma), 5 μg/ml of insulin (Sigma), 1% of penicillin/streptomycin (Sigma) were added and further cultured for 48 hours. […] As a control to confirm the effect of inhibiting adipocyte differentiation, 20 μM of bisphenol A diglycidyl ether (BADGE) (Sigma), a PPARγ (Peroxisome proliferator-activated receptor gamma) antagonist, was used. Thereafter, the cells were further cultured for 10 days while being replaced with a medium containing 10% FBS and 5 μg/ml insulin and 1% penicillin/streptomycin at two-day intervals to induce adipocyte differentiation.
Differentiated adipocytes treated with each of the seven types of ginsenosides were fixed with formaldehyde solution (Sigma), stained with Oil-red O staining solution (Sigma), and then dissolved with isopropanol (Sigma), and then the amount of the stained fat was quantified by measuring at 490 nm absorbance.

The test system of data set [3] is human umbilical vein endothelial cells (HUVEC). In words: nitric oxide (NO) production in vascular endothelial cells. From the text:
Since nitric oxide is made by […] nitric oxide synthase (eNOS), in this experiment, it was confirmed whether the novel ginsenoside GS #10 of the example of the present disclosure can promote the production of nitric oxide through eNOS activity control in vascular endothelial cells. Specifically, the human umbilical vein endothelial cells (HUVEC) were purchased from the International Center for Biological Resources (ATCC) and cultured, and then the amount of nitric oxide (NO) produced by treating the novel ginsenoside GS #10 at a concentration of 1 to 10 μg/ml was measured.

In another data set the test system is HepG2 cells. The data set is described as follows: triglyceride accumulation in hepatocytes (Triglyceride Assay Kit). From the text:
In addition, in order to investigate whether inhibition of the expression of fat synthesis-related genes by ginsenoside derived from Ginseng seed may be involved in actual fat synthesis and accumulation, HepG2 cells were used to treat seven ginsenosides (GS #01-GS #06, GS #10; […]) and the control group (fenofibrate, FF) in the same manner as above, and then the Triglyceride Assay Kit (Abcam) was used to measure the amount of triglyceride (TG) accumulated in hepatocytes.

In data set [4] the test system is aP2 (Adipocyte protein 2). In words: aP2 adipocyte marker gene expression (qPCR). The procedure:
as §1, §2

Data set [5] relates to PPARγ (Peroxisome proliferator-activated receptor gamma). The data set is described as follows: PPARγ adipocyte marker gene expression (qPCR). The procedure: as §1, §2

As to `CC1(C)C(=O)CC[C@@]2(C)C1[C@@H](O[C@H]1OC(CO)[C@H](O)C(O)C1O[C@H]1OC(CO)[C@H](O)C(O)C1O)C[C@]1(C)C2C[C@@H](O)C2C([C@]3(C)CC[C@H](C(C)(C)O)O3)CC[C@]21C` (stereo partly drawn) [GS #10, (20S,24R)-6-O-β-D-glucopyranosyl(1→2)-β-D-glucopyranoside-dammar-3-one-20,24-epoxy-6a,12b,25-triol], in data set [1] (10 μg/ml, MTT, compared with GS #01-GS #06, FIG. 45), the “survival rate-increasing effect of vascular endothelial cells” value is “highest survival rate-increasing effect of vascular endothelial cells”. Also, in data set [1] (10 μg/ml, compared with Rg1, Rg3, Rb1, FIG. 47), the “increased survival rate of vascular endothelial cells (HUVEC)” value is given as “far superior”. Also, the “survival rate of HUVEC” value in data set [1] (1-10 μg/ml, MTT, FIG. 44) was “increase the survival rate of HUVEC regardless of the concentration”. The “adipocyte differentiation inhibition, CD36 gene expression” value in the data set with CD36 (1 μM and 10 μM, compared with Rg1, Rg3, Rb1, FIG. 41) was “far superior in adipocyte differentiation inhibition”; in the data set with CD36 (10 μM, FIG. 37), “more effective in inhibiting the adipocyte differentiation”. Moreover, the “expression of HMG-CoA reductase” value in data set [2] (10 μM, HepG2, FIG. 28) is recorded as “most excellent efficacy of inhibiting the expression”. Moreover, in data set [2] (1 and 10 μM, compared with Rg1, Rg3, Rb1, FIG. 31), the “inhibition of cholesterol synthesis (HMG-CoA reductase expression)” value is listed as “most effective in inhibiting cholesterol synthesis”. Moreover, the “fat accumulation inhibitory effect in adipocytes” value in the data set on adipocyte cell 3T3-L1 (1 μM and 10 μM, compared with Rg1, Rg3, Rb1, FIG. 38) was “far superior in adipocyte differentiation inhibition and fat accumulation inhibitory effect”; in the data set with adipocyte cell 3T3-L1 (10 μM during 48 hours of differentiation, FIG. 34), “most excellent fat accumulation inhibitory effect”. Further, in data set [3] (10 μg/ml, HUVEC, FIG. 43), the “NO production efficacy relative to ginsenoside Re (GS #03)” value is ≥ 2 times. Moreover, the NO production-increasing effect result in data set [3] (10 μg/ml, HUVEC, compared with GS #01 to GS #06, FIG. 43) is reported as “significantly greater NO production-increasing effect”. The “increased production of nitric oxide (NO)” value in data set [3] (10 μg/ml, compared with Rg1, Rg3, Rb1, FIG. 46) is reported as “far superior”. The “nitric oxide (NO) production” value in data set [3] (1 to 10 μg/ml, HUVEC, FIG. 42) is “increase NO production in a concentration-dependent manner”. Besides, the “inhibitory effect of lipid (triglyceride) accumulation in hepatocytes” value with HepG2 cells (10 μM, HepG2, FIG. 21) is listed as “most excellent inhibitory effect of lipid accumulation in hepatocytes”. For the same compound, the “inhibition of triglyceride accumulated in hepatocytes” value with HepG2 cells (1, 10 μM, compared with Rg1, Rg3, Rb1, FIG. 26) is on record as “far superior in lipid metabolism inhibitory effect”. The “adipocyte differentiation inhibition, aP2 gene expression” value in data set [4] (1 μM and 10 μM, compared with Rg1, Rg3, Rb1, FIG. 40) is listed as “far superior in adipocyte differentiation inhibition”; in data set [4] (10 μM, FIG. 36), “more effective in inhibiting the adipocyte differentiation”. In addition, the “adipocyte differentiation inhibition, PPARγ gene expression” value is given as “far superior in adipocyte differentiation inhibition” in data set [5] (1 μM and 10 μM, compared with Rg1, Rg3, Rb1, FIG. 39); “more effective in inhibiting the adipocyte differentiation” in data set [5] (10 μM, FIG. 35).
